Source: patent US20250122155A1, “NOVEL INDOLE DERIVATIVE, PHARMACEUTICAL COMPOSITION COMPRISING SAME, AND USE THEREOF” (MITOIMMUNE THERAPEUTICS INC., priority 2021, published 2025)

Legend:
MLE-12 cells = assay: Cell death protective effect in lung epithelial cells against RSL3 (LDH); type: cell-based, rat; conditions: MLE-12, RSL3 1.0 μM, 24 hours
Experimental: In order to identify the protective effect on lung epithelial cells, MLE-12 cells were divided into 96-well plates by 5×10^3 and cultured for 18 to 24 hours. The compounds of Examples were diluted to final concentrations of 0.1 and 1.0 μM, treated in each well, and incubated for 20 minutes. RSL3 was treated to have final concentrations of 1.0 μM, respectively, and cultured for 24 hours. In order to identify the protective effect of each compound, the degree of LDH extracellular secretion was measured using cytotoxicity LDH assay kit [Dojindo; CK12]. Briefly, at the time when the treatment of the cells with RSL3 for 24 hours is completed, the supernatants containing the cells are taken by 70 μL and transferred to a new 96-well plate. The assay buffer included in the kit is added in an amount of 70 μL/well (the same amount as the sample) thereto, and then the plate is wrapped with a foil and the reaction is performed at room temperature for 15 minutes.

H9C2 cells [1] = assay: Cell death protective effect in cardiac myocytes against Erastin, glutamate and RSL3 (LDH); type: cell-based, rat; conditions: 24 hours
Experimental: (§1) In order to identify the protective effect on cardiac cells, H9C2 cells were divided into 96-well plates by 1×10^4 and cultured for 18 to 24 hours. The compounds of Examples were diluted to final concentrations of 0.1 and 1 μM, treated in each well, and incubated for 15 to 20 minutes. Erastin, glutamate, and RSL3 were treated to have final concentrations of 1 μM, 25 mM, and 0.5 μM, respectively, and cultured for 24 hours. In order to identify the protective effect of each compound, the degree of LDH extracellular secretion was measured using cytotoxicity LDH assay kit [Dojindo; CK12]. Briefly, at the time when the treatment of the cells with Erastin, glutamate, and RSL3 for 24 hours is completed, the supernatants containing the cells are taken by 70 μL and transferred to a new 96-well plate. The assay buffer included in the kit is added in an amount of 70 μL/well (the same amount as the sample) thereto, and then the plate is wrapped with a foil and the reaction is performed at room temperature for 15 minutes.

NIH/3T3 cells = assay: Cell death protective effect in fibroblasts against Erastin, glutamate and RSL3 (LDH); type: cell-based, mouse; conditions: 24 hours
Experimental: as §1, with “effect on fibroblasts, NIH/3T3 cells were” for “effect on cardiac cells, H9C2 cells were”, “plates by 8×10^3 and cultured” for “plates by 1×10^4 and cultured”, “concentrations of 3 μM, 30” for “concentrations of 1 μM, 25”, “3 μM, 30 mM, and” for “1 μM, 25 mM, and”, “mM, and 3 μM, respectively,” for “mM, and 0.5 μM, respectively,”, “15 minutes. After observing the changed color of the sample, the stop solution was added in an amount of 35 μL/well thereto, and then the 00 inhibition value was calculated by measuring the absorbance value at a wavelength of 490 nm using an iD3 spectrophotometer.” for “15 minutes.”

H9C2 cells [2] = assay: Protective effect on heart cells against t-BHP (LDH release); type: cell-based; conditions: H9C2, t-BHP 400 μM, 2 hours, read-out: EC50 (μM), Cell Protection Effect against t-BHP in Heart Cells
Procedure, shortened: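 H9C2 cells (1.5×10^4/well, cultured 24 h) were pretreated 15–20 min with compound at 0.01–30 μM final, then exposed 2 h to 400 μM t-BHP. LDH in supernatant was measured colorimetrically at 490 nm after 30 min room-temperature reaction; EC50 derived from protection.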

NRK-49F cells = assay: Cell death protective effect in renal fibroblasts against Erastin, glutamate and RSL3 (LDH); type: cell-based, rat; conditions: 24 hours
Experimental: as §1, with “effect on renal fibroblasts, NRK-49F cells were” for “effect on cardiac cells, H9C2 cells were”, “concentrations of 3 μM, 75” for “concentrations of 1 μM, 25”, “3 μM, 75 mM, and” for “1 μM, 25 mM, and”, “mM, and 3 μM, respectively,” for “mM, and 0.5 μM, respectively,”, “by 70 μl and transferred” for “by 70 μL and transferred”

[3] = H9C2, Erastin 1 μM, compound 0.1 μM
[4] = H9C2, Erastin 1 μM, compound 1.0 μM
[5] = H9C2, Glutamate 25 mM, compound 0.1 μM
[6] = H9C2, Glutamate 25 mM, compound 1.0 μM
[7] = H9C2, RSL3 0.5 μM, compound 0.1 μM
[8] = H9C2, RSL3 0.5 μM, compound 1.0 μM
[9] = NIH/3T3, Erastin 3 μM, compound 0.1 μM
[10] = NIH/3T3, Erastin 3 μM, compound 1.0 μM
[11] = NIH/3T3, Glutamate 30 mM, compound 0.1 μM
[12] = NIH/3T3, Glutamate 30 mM, compound 1.0 μM
[13] = NIH/3T3, RSL3 3 μM, compound 0.1 μM
[14] = NIH/3T3, RSL3 3 μM, compound 1.0 μM
[15] = Glutamate 75 mM, compound 0.1 μM
[16] = Glutamate 75 mM, compound 1.0 μM

SMILES	inhibition (%) (MLE-12 cells; compound 0.1 μM)	inhibition (%) (MLE-12 cells; compound 1.0 μM)	inhibition (%) (H9C2 cells [1]; [3])	inhibition (%) (H9C2 cells [1]; [4])	inhibition (%) (H9C2 cells [1]; [5])	inhibition (%) (H9C2 cells [1]; [6])	inhibition (%) (H9C2 cells [1]; [7])	inhibition (%) (H9C2 cells [1]; [8])	inhibition (%) (NIH/3T3 cells; [9])	inhibition (%) (NIH/3T3 cells; [10])	inhibition (%) (NIH/3T3 cells; [11])	inhibition (%) (NIH/3T3 cells; [12])	inhibition (%) (NIH/3T3 cells; [13])	inhibition (%) (NIH/3T3 cells; [14])	inhibition (%) (NRK-49F cells; Erastin 3 μM, compound 0.1 μM)	inhibition (%) (NRK-49F cells; Erastin 3 μM, compound 1.0 μM)	inhibition (%) (NRK-49F cells; [15])	inhibition (%) (NRK-49F cells; [16])	inhibition (%) (NRK-49F cells; RSL3 3 μM, compound 0.1 μM)	inhibition (%) (NRK-49F cells; RSL3 3 μM, compound 1.0 μM)	further results
COCCOCc1cc(NCc2ccncc2)c2[nH]c(-c3ccccc3)cc2c1 [Example 45, 5-(2-methoxyethoxymethyl)-2-phenyl-N-(4-pyridylmethyl)-1H-indol-7-amine]	98%	100%	100%	100%	98%	96%	99%	97%	100%	100%	0%	97%	0%	100%	99%	98%	100%	98%	99%	98%	EC50 (H9C2 cells [2]): ≤ 0.3 µM
COCCOCc1cc(NC2CCN(C(C)=O)CC2)c2[nH]c(-c3ccccc3)cc2c1 [Example 30, 1-[4-[[5-(2-methoxyethoxymethyl)-2-phenyl-1H-indol-7-yl]amino]piperidyl]-1-ethanone]	84%	95%	0%	100%	90%	98%	0%	96%	6%	100%	100%	100%	100%	100%	98%	98%	97%	100%	52%	98%	EC50 (H9C2 cells [2]): ≤ 0.3 µM
CCOC(=O)c1ccc(NC2CCCCC2)c(N)c1 [Ferrostatin-1, reference compound]	100%	100%	100%	100%	98%	97%	96%	96%	17%	99%	97%	97%	100%	100%	99%	98%	95%	100%	94%	99%	
COCCOCc1cc(NCC2CCOCC2)c2[nH]c(-c3ccccc3)cc2c1 [Example 4, 5-2(methoxyethoxymethyl)-2-phenyl-N-(tetrahydropyran-4-ylmethyl)-1H-indol-7-amine]	90%	91%	100%	100%	97%	96%	97%	96%	99%	99%	100%	100%	100%	100%	99%	99%	99%	100%	98%	99%	EC50 (H9C2 cells [2]): ≤ 0.3 µM
CCOCCOCc1cc(NC2CCCC2)c2[nH]c(-c3ccccc3)cc2c1 [Example 36, N-cyclopentyl-5-(2-ethoxyethoxymethyl)-2-phenyl-1H-indol-7-amine]	89%	94%	100%	100%	99%	97%	98%	99%	99%	100%	100%	100%	100%	100%	99%	99%	100%	100%	98%	99%	EC50 (H9C2 cells [2]): ≤ 0.3 µM
